The values that follow are results of earlier work, collected in patent US10792293B2, “Topical nanodrug formulation” (priority 2015, dated 2020).

With `CC(=O)S[C@@H]1CC2=CC(=O)CC[C@]2(C)[C@H]2CC[C@@]3(C)[C@@H](CC[C@@]34CCC(=O)O4)[C@H]12` [Spironolactone, spironolactone], the solubility in water entry is “about 2.8 mg/100 ml”.
